In data set [1] the target is T1, endogenous amyloid-β (Abeta) plaques in the 5XFAD brain lysate (Homo sapiens, UniProt P05067).
T1 construct: coexpressed five familial AD (FAD) and additively increase Abeta-42 production; from tissue; host or cells: midbrain lysate (supernatant) of 8-month-old 5XFAD transgenic mice
Briefly: HATCO assay (high-throughput amyloid Thioflavin competitive binding optical assay), thioflavin-T fluorescence readout. On the set-up: species or system 5XFAD mice. The settings on record: for IC50: competition with thioflavin-T for Abeta in 5XFAD brain lysate, 384-well, 4-parameter fit. An excerpt: However, when bound to Abeta plaque, its FL increases dramatically and results in a strong FL signal with a characteristically shifted λmax to approximately 485 nm. In view thereof, as opposed to existing methods that detect binding of the dye through increased fluorescence, the present methods identify amyloid-binding compounds through a lack of binding between the dye and the amyloid, as evidenced by attenuated fluorescence. […] Accordingly, in some embodiments, the method of screening includes combining the target compound(s) with a dye (e.g., Thioflavin-T) and endogenous amyloid (e.g., endogenous amyloid-β (Abeta) plaques in the 5XFAD brain lysate), then measuring the fluorescence of the combination. In some embodiments, the fluorescence of the combination is then compared to negative and/or positive control.
HATCO competitive binding study. […] To facilitate the generation of concentration-response curves, fluorescence at each data point was averaged on a compound-by-compound basis and plotted as a function of concentration. […] From this curve, IC50 values for each compound were calculated by fitting the data to a 4-parameter logistical model in the GraphPad software package.
Brain lysate preparation—Excised midbrains of 5XFAD (8-month-old) or wt mice (age-matched) were homogenized for 5 min in 200 μL of buffer comprised of 21.4 g sucrose, 5 mL of 1 M tris base, and 0.5 mL of 0.5 M EDTA/250 mL DPBS using the T-25 basic Ultra-Turrax homogenizer. Additional 100 μL aliquots of this buffer were then added to the homogenized sample and re-homogenized for 2 min until a total added volume of 800 μL was attained. The sample was diluted to 4 mL total volume using another buffer comprised of 5% BSA, and 0.03% Tween 20 in DPBS solution. Roche Complete protease inhibitor tablets were added to both buffers immediately prior to use (1 tablet/10 mL buffer). The sample was centrifuged at 16,000 g for 30 min at 4° C. Aliquots of the supernatant were stored at −80° C. until use.
HATCO HTS assay—To translate the assay initially performed on a cuvette to a 384-well format, the general protocol includes the following steps: A fresh stock solution of thioflavin-T was prepared in distilled and deionized water after passing through a micro filter. The concentration of […] was measured according to Beer's law with an extinction coefficient of 26,620 M^−1cm^−1 at 416 nm. The stock solution was stored in darkness using aluminum foil and kept at 4° C. throughout the assay. Unless stated, each assaying well contained 10 μM of thioflavin-T, 5 mg/mL of freshly isolated and homogenized brain lysate (5 μL) obtained from 5XFAD mice and with 30 μM of screening compounds. […] For the negative control, the wells contained the same components minus positive control. The protein concentration of brain lysate throughout the study was normalized. After equilibration for 10 min at room temperature, the FL signal of the sample was measured using a Biotek Synergy NEO plate reader at an emission lambda max of 485 nm using an excitation of 465 nm and the signals of the different conditions were analyzed. The final volume per well was 50 μL. All assays were performed using a single dose of screening compounds in triplicate.
Once the preliminary hit compounds were identified, a cross-screening protocol was employed to validate the hits with duplicated concentrations for each hit.

The conditions of data set [2]: mouse, in vivo. As for the experimental part: In the HPLC experiment, WT and 5XFAD mice (n=3, each) were injected with promethazine via the tail veins, and subsequently perfused 10 min or 4 h post-injection. Freshly isolated brains were homogenized to facilitate extraction and quantification via HPLC using the procedure we reported earlier.
In another data set the test system is Abeta plaques. The data set can be described thus: Autoradiography of human brain tissues from Alzheimer's disease patients with [11C]promethazine PET probe. The class given is binding. Conditions: human AD brain tissue sections soaked in probe in PBS; compared with a large excess of cold promethazine. The text has this:
(A) Tissues ([…]) on glass slides were soaked in [^11C]promethazine PET probe diluted in PBS solution. (B) Tissues were soaked in the same solution as (A), albeit with the presence of a large excess of “cold” (unlabeled) promethazine, denoted as PMZ in the figure.

Where two headings read alike, the source gives them in different places.

T1 sequence (P05067 672-713 limits assumed): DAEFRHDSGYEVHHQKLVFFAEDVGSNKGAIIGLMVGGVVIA

Take “1,6,7,1′,6′,7′-Hexahydroxy-5,5′-diisopropyl-3,3′-dimethyl-[2,2′]binaphthalenyl-8,8′-dicarbaldehyde [VU0243640]”: in data set [1], the IC50 (commonly the concentration that inhibits the measured activity by half) came to 84.2 µM.

In the case of `CC(CN1c2ccccc2Sc2ccccc21)N(C)C` (centres unmarked) [Promethazine, N,N-dimethyl-1-(10H-phenothiazin-10-yl)propan-2-amine], the half-maximal inhibitory concentration (IC50) in data set [1] was found to be 53.6 µM. For the same molecule, the “increase in promethazine retention in Aβ-burdened brains (5XFAD vs WT)” value in data set [2] (5XFAD versus WT, 10 min) is listed as roughly 4 fold. The “level of promethazine measured in brain (mean)” value was 9.62 µg in data set [2] (5XFAD, 10 min) and 2.57 µg in data set [2] (10 min). Also, the “original dose retained within the brain” value in data set [2] (5XFAD, 10 min) turned out to be 2%; in data set [2] (5XFAD, 240 min), 0.5%; in data set [2] (10 min), 0.5%; in data set [2] (240 min), 0.01%.

Regarding `Oc1ccc(/C=C/c2cc(O)cc(O)c2)cc1` [Resveratrol, (E)-5-(4-hydroxystyryl)benzene-1,3-diol], the entries for the “FL signal of thioflavin-T at 485 nm was reduced” value in data set [1] (100 μM), in data set [1] (500 μM) and in data set [1] (2000 μM) were 4.4%, 25.9% and 51%, respectively.

For `O=C(O)c1cc(/N=N/c2ccc(S(=O)(=O)Nc3ccccn3)cc2)ccc1O` [VU0243360, 2-Hydroxy-5-[4-(pyridine-2-ylsulfamoyl)-phenylazo]-benzoic acid], the IC50 in data set [1] came out at 68.1 µM.

Take `O=C1C(Cl)=C(Cl)C(=O)C(Cl)=C1Cl` [VU0243635, 2,3,5,6-Tetrachloro-[1,4]benzoquinone]: in data set [1], the half-maximal inhibitory concentration (IC50) worked out at 90.8 µM.

Take `Nc1ccc(/N=N/c2ccccc2)c(N)n1` [VU0244402, 3-Phenylazo-pyridine-2,6-diamine]: in data set [1], the IC50 stood at 74.3 µM.

Regarding `O=C(N/N=C/c1ccc([N+](=O)[O-])o1)c1cc([N+](=O)[O-])cc([N+](=O)[O-])c1O` [VU0656139, 2-Hydroxy-3,5-dinitro-benzoic acid (5-nitro-furan-2-ylmethylene)-hydrazide], the half-inhibitory concentration (IC50) in data set [1] was 61.2 µM.

As to `CC(CN1c2ccccc2Sc2ccccc21)N(C)C` (centres unmarked) [[^11C]promethazine], the “binding to Abeta plaques by autoradiography” value in the data set on Abeta plaques was “bound to Abeta plaques”.

Values taken from US12687540B2, “Amyloid-binding compounds and methods of use thereof” (Vanderbilt University, priority 2019, dated 2026).
